In PubChem BioAssay (NCI):
Values joined by “and” are separate entries in the source; they are usually repeats but may differ in a detail not shown here. Equal values may be shown once.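 How tested: cells in 96-well plates exposed to compound for 48 hours at five concentrations. GI50 marks 50% less growth. Definition used: TGI = concentration required for complete inhibition of growth.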

How the values were obtained:
Experiment in all cases: growth of human tumour cells (NCI), 48 h
SK-MEL-28 melanoma = test system: SK-MEL-28 melanoma
HOP-18 NSCLC = test system: HOP-18 NSCLC
NCI-H23 lung = test system: NCI-H23 lung
K-562 leukemia = test system: K-562 leukemia
KM20L2 colon = test system: KM20L2 colon
CAKI-1 renal = test system: CAKI-1 renal
KM12 colon = test system: KM12 colon
UO-31 renal = test system: UO-31 renal
RPMI-8226 leukemia = test system: RPMI-8226 leukemia
BT-549 breast = test system: BT-549 breast

**Q.** For `CN(O)C(=O)SCC(NC(=O)CCC(N)C(=O)O)C(=O)NCC(=O)O` (stereo not drawn), which GI50 (SK-MEL-28 melanoma) is on record?
**A.** Its GI50 is over 2000 µM.

**Q.** And the TGI (SK-MEL-28 melanoma)?
**A.** Its TGI is over 2000 µM.

**Q.** And the GI50 (HOP-18 NSCLC)?
**A.** The GI50 was over 2000 µM.

**Q.** What about the TGI (HOP-18 NSCLC) of the same molecule?
**A.** Its TGI is over 2000 µM.

**Q.** And the GI50 (NCI-H23 lung)?
**A.** The GI50 was over 2000 µM.

**Q.** What about the TGI (NCI-H23 lung) of the same molecule?
**A.** Its TGI is over 2000 µM.

**Q.** What about the GI50 (K-562 leukemia) of the same molecule?
**A.** The GI50 was > 2 µM and 812 µM.

**Q.** And the TGI (K-562 leukemia)?
**A.** The TGI was over 2000 µM.

**Q.** What about the GI50 (KM20L2 colon) of the same molecule?
**A.** The GI50 was over 2000 µM.

**Q.** What about the TGI (KM20L2 colon) of the same molecule?
**A.** The TGI was over 2000 µM.

**Q.** What about the GI50 (CAKI-1 renal) of the same molecule?
**A.** The GI50 was over 2000 µM.

**Q.** What about the TGI (CAKI-1 renal) of the same molecule?
**A.** Its TGI is over 2000 µM.

**Q.** And the GI50 (KM12 colon)?
**A.** The GI50 was over 2 µM.

**Q.** What about the TGI (KM12 colon) of the same molecule?
**A.** The TGI was over 2000 µM.

**Q.** What about the GI50 (UO-31 renal) of the same molecule?
**A.** The GI50 was over 2000 µM.

**Q.** What about the TGI (UO-31 renal) of the same molecule?
**A.** Its TGI is over 2000 µM.

**Q.** And the GI50 (RPMI-8226 leukemia)?
**A.** The GI50 was over 2000 µM.

**Q.** And the TGI (RPMI-8226 leukemia)?
**A.** Its TGI is over 2000 µM.

**Q.** For `COc1cc(Br)c(C=Nc2cccc3cc(OC)c(OC)cc23)cc1OC`, which TGI (SK-MEL-28 melanoma) is on record?
**A.** The TGI was over 100 µM.

**Q.** What about the TGI (HOP-18 NSCLC) of the same molecule?
**A.** The TGI was over 100 µM.

**Q.** What about the TGI (NCI-H23 lung) of the same molecule?
**A.** Its TGI is over 100 µM.

**Q.** What about the TGI (K-562 leukemia) of the same molecule?
**A.** Its TGI is over 100 µM.

**Q.** What about the TGI (KM20L2 colon) of the same molecule?
**A.** The TGI was over 100 µM.

**Q.** And the TGI (CAKI-1 renal)?
**A.** Its TGI is over 100 µM.

**Q.** And the TGI (KM12 colon)?
**A.** The TGI was over 100 µM.

**Q.** What about the TGI (UO-31 renal) of the same molecule?
**A.** The TGI was over 100 µM.

**Q.** What about the TGI (RPMI-8226 leukemia) of the same molecule?
**A.** Its TGI is over 100 µM.

**Q.** What does the source list for `O=C(O)CCC(=O)N1c2ccccc2CC1c1c[nH]c2ccccc12` (stereo not drawn)?
**A.** TGI (SK-MEL-28 melanoma): > 100 µM; TGI (HOP-18 NSCLC): > 100 µM; TGI (NCI-H23 lung): > 100 µM; TGI (K-562 leukemia): > 100 µM; TGI (KM20L2 colon): > 100 µM; TGI (CAKI-1 renal): > 100 µM; TGI (KM12 colon): > 100 µM; TGI (UO-31 renal): > 100 µM; TGI (RPMI-8226 leukemia): > 100 µM

**Q.** For `C=C1C(=O)O[C@@H]2C[C@@H](C)[C@@H]3C=CC(=O)[C@@]3(C)[C@@H](O)[C@H]12`, which TGI (SK-MEL-28 melanoma) is on record?
**A.** The TGI was 3.77 µM.

**Q.** And the TGI (HOP-18 NSCLC)?
**A.** The TGI was 3.53 µM.

**Q.** And the TGI (NCI-H23 lung)?
**A.** Its TGI is 4.15 µM.

**Q.** What about the TGI (K-562 leukemia) of the same molecule?
**A.** The TGI was 8.34 µM.

**Q.** What about the TGI (KM20L2 colon) of the same molecule?
**A.** Its TGI is 3.87 µM.

**Q.** What about the TGI (CAKI-1 renal) of the same molecule?
**A.** The TGI was 1.2 µM.

**Q.** What about the TGI (KM12 colon) of the same molecule?
**A.** Its TGI is 3.31 µM.

**Q.** And the TGI (UO-31 renal)?
**A.** The TGI was 3.65 µM.

**Q.** And the TGI (BT-549 breast)?
**A.** Its TGI is 2.32 µM.

**Q.** What about the TGI (RPMI-8226 leukemia) of the same molecule?
**A.** Its TGI is 2.81 µM.

**Q.** Which TGI (SK-MEL-28 melanoma) does the source give for `O/N=C1/C(=C/c2ccc3c(c2)OCO3)CCCC1C(NO)c1ccc2c(c1)OCO2` (stereo not drawn) here?
**A.** The TGI was 40.1 µM.

**Q.** And the TGI (HOP-18 NSCLC)?
**A.** Its TGI is 42.5 µM.

**Q.** What about the TGI (NCI-H23 lung) of the same molecule?
**A.** Its TGI is 72.5 µM.

**Q.** And the TGI (K-562 leukemia)?
**A.** Its TGI is 71 µM.

**Q.** And the TGI (KM20L2 colon)?
**A.** Its TGI is 34.6 µM.

**Q.** What about the TGI (CAKI-1 renal) of the same molecule?
**A.** Its TGI is 94.6 µM.

**Q.** What about the TGI (KM12 colon) of the same molecule?
**A.** The TGI was 43.6 µM.

**Q.** What about the TGI (UO-31 renal) of the same molecule?
**A.** The TGI was 58.5 µM.

**Q.** And the TGI (RPMI-8226 leukemia)?
**A.** The TGI was 40.9 µM.

**Q.** Which results are given for `O=C(NCCCCNc1cccccc1=O)OCc1ccccc1`?
**A.** TGI (SK-MEL-28 melanoma): > 100 µM; TGI (HOP-18 NSCLC): > 100 µM; TGI (NCI-H23 lung): > 100 µM; TGI (K-562 leukemia): > 100 µM; TGI (KM20L2 colon): > 100 µM; TGI (CAKI-1 renal): > 100 µM; TGI (KM12 colon): > 100 µM; TGI (UO-31 renal): > 100 µM; TGI (RPMI-8226 leukemia): > 100 µM

**Q.** `O=C(COc1ccc(Cl)cc1)N1N=C(c2ccc(Cl)cc2)CC1(O)c1ccccc1` (stereo not drawn) was tested. Which TGI (SK-MEL-28 melanoma) did it give?
**A.** Its TGI is 35.3 µM.

**Q.** What about the TGI (HOP-18 NSCLC) of the same molecule?
**A.** Its TGI is over 100 µM.

**Q.** What about the TGI (NCI-H23 lung) of the same molecule?
**A.** The TGI was 33.9 µM.

**Q.** What about the TGI (K-562 leukemia) of the same molecule?
**A.** The TGI was over 42.7 µM.

**Q.** What about the TGI (KM20L2 colon) of the same molecule?
**A.** Its TGI is over 50.9 µM.

**Q.** What about the TGI (CAKI-1 renal) of the same molecule?
**A.** Its TGI is over 100 µM.

**Q.** And the TGI (KM12 colon)?
**A.** The TGI was 31.4 µM.

**Q.** What about the TGI (UO-31 renal) of the same molecule?
**A.** The TGI was over 100 µM.

**Q.** And the TGI (RPMI-8226 leukemia)?
**A.** Its TGI is over 37.6 µM.
